A short description of series [1]: Pharmacokinetics (PK) test of immediate release formulation (capsule formulation) in human. The series is classed as in vivo. The settings on record: healthy subjects, immediate release capsules, 0.1 to 340 mg. On the procedure:
The immediate release formulations (capsule formulations) containing 0.1 mg, 1 mg, 5 mg, 20 mg, and 80 mg of the compound A were used in combinations as needed so that the dose of compound A became 0.1 mg, 1 mg, 3 mg, 10 mg, 30 mg, 100 mg, 160 mg, 240 mg, and 340 mg.

The nature of series [2]: Pharmacokinetics of compound A after conventional formulation (elimination half-life; absorption by deconvolution). The note with it: human, in vivo; read-out: elimination half-life (T1/2). An excerpt: Taking into consideration the results of the clinical trial described above, the present inventors conducted intensive studies to design the formulation by paying attention to the control of a release rate of the drug from a formulation to the extent that the release is not affected by food intake or the like, rather than the addition of release control.
On the basis of blood concentration profiles (in a fasted state/after the intake of food) after administration of a conventional formulation (immediate release formulation), the absorption rate of the drug in a fed state was calculated by a deconvolution method to predict continuous absorption for about 4 hours.

As to `Nc1nc(CC(=O)Nc2ccc(CCNC[C@H](O)c3ccccc3)cc2)cs1` [Compound A, (R)-2-(2-aminothiazol-4-yl)-4′-[2-[(2-hydroxy-2-phenylethyl)amino]ethyl]acetic acid anilide], the “relation between Cmax and the increase in heart rate from the base line” value in series [1] is “positive correlation”. In addition, the half-life in series [2] is 18 to 24 h.

These data come from patent US8877214B2, “Pharmaceutical composition for modified release” (Astellas Pharma Inc., priority 2010, dated 2014).
